Measurements taken from patent US5840684A, “Glycopeptide antibiotic derivatives” (Eli Lilly and Company, priority 1995, dated 1998).
Values after ≈ are worked out from the molar mass of the structure shown.

What was measured:
[1] = system: Staphylococcus aureus S13E; format: cell-based
Description: (§1) The MIC's were determined using a standard broth micro-dilution assay.

[2] = system: Staphylococcus aureus SA1199B; format: cell-based
Description: as §1

[3] = system: Staphylococcus aureus SA1199; test: broth micro-dilution MIC; format: cell-based
Description: as §1

[4] = system: Streptococcus pyogenes C203; test: broth micro-dilution MIC; format: cell-based
Description: as §1

Entercoccus faecium 276 = test: broth micro-dilution MIC; format: cell-based
Description: as §1

[5] = system: Staphylococcus aureus SA1199A; test: broth micro-dilution MIC; format: cell-based
Description: as §1

[6] = system: Entercoccus faecium 180-1; test: broth micro-dilution MIC; format: cell-based
Description: as §1

[7] = system: vancomycin-susceptible enterococci; test: broth micro-dilution, mean geometric MIC; format: cell-based, Enterococcus faecium and Enterococcus faecalis; conditions: enterococci, 24-hour incubation
Entercoccus faecium 180 = test: broth micro-dilution MIC; format: cell-based; conditions: Entercoccus faecium 180
Description: (§2) The formula I compounds have in vitro and in vivo activity against Gram-positive pathogenic bacteria. The MIC's were determined using a standard broth micro-dilution assay.

[8] = system: Streptococcus pneumoniae P1; test: broth micro-dilution MIC; format: cell-based
Description: as §2

[9] = system: Enterococcus gallinarum 245; test: broth micro-dilution MIC; format: cell-based; conditions: Enterococcus gallinarum 245
Description: as §2

[10] = system: Staphylococcus aureus 446; test: broth micro-dilution MIC; format: cell-based
Description: as §1

[11] = system: vancomycin-resistant enterococci; test: broth micro-dilution, mean geometric MIC; format: cell-based, Enterococcus faecium and Enterococcus faecalis; conditions: enterococci, 24-hour incubation
Entercoccus faecium 2041 = test: broth micro-dilution MIC; format: cell-based; conditions: Entercoccus faecium 2041
Description: as §2

[12] = system: Staphylococcus haemolyticus 105; test: broth micro-dilution MIC; format: cell-based
Description: as §2

[13] = system: Staphylococcus epidermidis 270; test: broth micro-dilution MIC; format: cell-based
Description: as §2

[14] = system: Staphylococcus haemolyticus 415; test: broth micro-dilution MIC; format: cell-based
Description: as §2

[15] = system: Staphylococcus aureus X400; test: broth micro-dilution MIC; format: cell-based
Description: as §1

[16] = system: Staphylococcus aureus 447; test: broth micro-dilution MIC; format: cell-based
Description: as §1

[17] = system: Staphylococcus aureus X778; test: broth micro-dilution MIC; format: cell-based
Description: as §1

Row | mean geometric MIC, Vancomycin Sensitive Strains [7] [µg/mL] | mean geometric MIC, Vancomycin Resistant Strains [11] [µg/mL] | SMILES | MIC [1] [µg/mL] | MIC [4] [µg/mL] | MIC (Entercoccus faecium 276) [µg/mL] | MIC [6] [µg/mL] | MIC (Entercoccus faecium 180) [µg/mL] | MIC [8] [µg/mL] | MIC [9] [µg/mL] | MIC [10] [µg/mL] | also measured
1 | 0.31 | 0.50 | CCCCCOc1ccc(-c2ccc(CNC3(C)CC(OC4C(Oc5c6cc7cc5Oc5ccc(cc5Cl)C(OC5CC(C)(N)C(O)C(C)O5)C5NC(=O)C(NC(=O)C7NC(=O)C(CC(N)=O)NC(=O)C(NC(=O)C(CC(C)C)NC)C(O)c7ccc(c(Cl)c7)O6)c6ccc(O)c(c6)-c6c(O)cc(O)cc6C(C(=O)O)NC5=O)OC(CO)C(O)C4O)OC(C)C3O)cc2)cc1 (stereo not drawn) [Compound 40] |  |  |  |  |  |  |  |  | 
2 | 0.089 | 1.7 | CNC(CC(C)C)C(=O)NC1C(=O)NC(CC(N)=O)C(=O)NC2C(=O)NC3C(=O)NC(C(=O)NC(C(=O)O)c4cc(O)cc(O)c4-c4cc3ccc4O)C(OC3CC(C)(N)C(O)C(C)O3)c3ccc(c(Cl)c3)Oc3cc2cc(c3OC2OC(CO)C(O)C(O)C2OC2CC(C)(NCC(C)=Cc3ccc(C(C)(C)C)cc3)C(O)C(C)O2)Oc2ccc(cc2Cl)C1O (stereo not drawn) [Compound 42] |  |  |  |  |  |  |  |  | 
3 | 0.50 | 13 | CNC(CC(C)C)C(=O)NC1C(=O)NC(CC(N)=O)C(=O)NC2C(=O)NC3C(=O)NC(C(=O)NC(C(=O)O)c4cc(O)cc(O)c4-c4cc3ccc4O)C(OC3CC(C)(N)C(O)C(C)O3)c3ccc(c(Cl)c3)Oc3cc2cc(c3OC2OC(CO)C(O)C(O)C2OC2CC(C)(NCc3c(O)ccc4ccccc34)C(O)C(C)O2)Oc2ccc(cc2Cl)C1O (stereo not drawn) [Compound 44] |  |  |  |  |  |  |  |  | 
4 | 0.50 | 2.0 | CNC(CC(C)C)C(=O)NC1C(=O)NC(CC(N)=O)C(=O)NC2C(=O)NC3C(=O)NC(C(=O)NC(C(=O)O)c4cc(O)cc(O)c4-c4cc3ccc4O)C(OC3CC(C)(N)C(O)C(C)O3)c3ccc(c(Cl)c3)Oc3cc2cc(c3OC2OC(CO)C(O)C(O)C2OC2CC(C)(NCc3cc(-c4ccccc4)nc4ccc(OC)cc34)C(O)C(C)O2)Oc2ccc(cc2Cl)C1O (stereo not drawn) [Compound 45] |  |  |  |  |  |  |  |  | 
5 | 0.57 | 4.7 | CNC(CC(C)C)C(=O)NC1C(=O)NC(CC(N)=O)C(=O)NC2C(=O)NC3C(=O)NC(C(=O)NC(C(=O)O)c4cc(O)cc(O)c4-c4cc3ccc4O)C(OC3CC(C)(N)C(O)C(C)O3)c3ccc(c(Cl)c3)Oc3cc2cc(c3OC2OC(CO)C(O)C(O)C2OC2CC(C)(NCC3CC=CCC3)C(O)C(C)O2)Oc2ccc(cc2Cl)C1O (stereo not drawn) [Compound 47] |  |  |  |  |  |  |  |  | 
6 | 0.50 | 4.8 | CNC(CC(C)C)C(=O)NC1C(=O)NC(CC(N)=O)C(=O)NC2C(=O)NC3C(=O)NC(C(=O)NC(C(=O)O)c4cc(O)cc(O)c4-c4cc3ccc4O)C(OC3CC(C)(N)C(O)C(C)O3)c3ccc(c(Cl)c3)Oc3cc2cc(c3OC2OC(CO)C(O)C(O)C2OC2CC(C)(NCc3ccc4c(c3)OCO4)C(O)C(C)O2)Oc2ccc(cc2Cl)C1O (stereo not drawn) [Compound 48] |  |  |  |  |  |  |  |  | 
7 | 0.22 | 72 | CNC(CC(C)C)C(=O)NC1C(=O)NC(CC(N)=O)C(=O)NC2C(=O)NC3C(=O)NC(C(=O)NC(C(=O)O)c4cc(O)cc(O)c4-c4cc3ccc4O)C(OC3CC(C)(N)C(O)C(C)O3)c3ccc(c(Cl)c3)Oc3cc2cc(c3OC2OC(CO)C(O)C(O)C2OC2CC(C)(NCc3ccc(C(O)c4ccccc4)cc3)C(O)C(C)O2)Oc2ccc(cc2Cl)C1O (stereo not drawn) [Compound 109] |  |  |  |  |  |  |  |  | 

Row | SMILES | mean geometric MIC, Vancomycin Sensitive Strains [7] [µg/mL] | mean geometric MIC, Vancomycin Resistant Strains [11] [µg/mL] | MIC [1] [µg/mL] | MIC [4] [µg/mL] | MIC (Entercoccus faecium 276) [µg/mL] | MIC [6] [µg/mL] | MIC (Entercoccus faecium 180) [µg/mL] | MIC [8] [µg/mL] | MIC [9] [µg/mL] | MIC [10] [µg/mL] | also measured
8 | CCCCCCCCCCCCOc1ccc(CNC2(C)CC(OC3C(Oc4c5cc6cc4Oc4ccc(cc4Cl)C(OC4CC(C)(N)C(O)C(C)O4)C4NC(=O)C(NC(=O)C6NC(=O)C(CC(N)=O)NC(=O)C(NC(=O)C(CC(C)C)NC)C(O)c6ccc(c(Cl)c6)O5)c5ccc(O)c(c5)-c5c(O)cc(O)cc5C(C(=O)O)NC4=O)OC(CO)C(O)C3O)OC(C)C2O)cc1 (stereo not drawn) [Compound 10] | 3.5 |  | 8 (≈ 4.29 µM) | ≤ 0.06 | 18 (≈ 9.64 µM) | 4 (≈ 2.14 µM) | 8 (≈ 4.29 µM) | 0.125 (≈ 0.067 µM) | 8 (≈ 4.29 µM) |  | MIC [2]: 8 µg/mL (≈ 4.29 µM); MIC [3]: 8 µg/mL (≈ 4.29 µM); MIC [5]: 4 µg/mL (≈ 2.14 µM)
9 | CCCCCCCCc1ccc(-c2ccc(CNC3(C)CC(OC4C(Oc5c6cc7cc5Oc5ccc(cc5Cl)C(OC5CC(C)(N)C(O)C(C)O5)C5NC(=O)C(NC(=O)C7NC(=O)C(CC(N)=O)NC(=O)C(NC(=O)C(CC(C)C)NC)C(O)c7ccc(c(Cl)c7)O6)c6ccc(O)c(c6)-c6c(O)cc(O)cc6C(C(=O)O)NC5=O)OC(CO)C(O)C4O)OC(C)C3O)cc2)cc1 (stereo not drawn) [Compound 21] | 4.3 |  |  | 2 (≈ 1.07 µM) |  | 8 (≈ 4.28 µM) | 8 (≈ 4.28 µM) | 0.5 (≈ 0.267 µM) | 8 (≈ 4.28 µM) |  | 
10 | CCCCCCCCOc1ccc(-c2ccc(CNC3(C)CC(OC4C(Oc5c6cc7cc5Oc5ccc(cc5Cl)C(OC5CC(C)(N)C(O)C(C)O5)C5NC(=O)C(NC(=O)C7NC(=O)C(CC(N)=O)NC(=O)C(NC(=O)C(CC(C)C)NC)C(O)c7ccc(c(Cl)c7)O6)c6ccc(O)c(c6)-c6c(O)cc(O)cc6C(C(=O)O)NC5=O)OC(CO)C(O)C4O)OC(C)C3O)cc2)cc1 (stereo not drawn) [Compound 23] | 2.0 | 5.7 |  | 1 (≈ 0.53 µM) | 32 (≈ 17 µM) | 32 (≈ 17 µM) |  | 0.5 (≈ 0.265 µM) | 8 (≈ 4.24 µM) | 38 (≈ 20.1 µM) | MIC (Entercoccus faecium 2041): 32 µg/mL (≈ 17 µM)
11 | CNC(CC(C)C)C(=O)NC1C(=O)NC(CC(N)=O)C(=O)NC2C(=O)NC3C(=O)NC(C(=O)NC(C(=O)O)c4cc(O)cc(O)c4-c4cc3ccc4O)C(OC3CC(C)(N)C(O)C(C)O3)c3ccc(c(Cl)c3)Oc3cc2cc(c3OC2OC(CO)C(O)C(O)C2OC2CC(C)(NCCc3ccc(Cc4ccccc4)cc3)C(O)C(C)O2)Oc2ccc(cc2Cl)C1O (stereo not drawn) [Compound 35] |  | 5.6 | ≤ 0.06 |  | ≤ 0.06 | ≤ 0.06 | 1 (≈ 0.56 µM) |  | ≤ 0.06 | 0.5 (≈ 0.28 µM) | MIC [12]: 2 µg/mL (≈ 1.12 µM); MIC (Entercoccus faecium 2041): ≤ 0.06 µg/mL; MIC [13]: 1 µg/mL (≈ 0.56 µM); MIC [14]: 4 µg/mL (≈ 2.24 µM)
12 | CNC(CC(C)C)C(=O)NC1C(=O)NC(CC(N)=O)C(=O)NC2C(=O)NC3C(=O)NC(C(=O)NC(C(=O)O)c4cc(O)cc(O)c4-c4cc3ccc4O)C(OC3CC(C)(N)C(O)C(C)O3)c3ccc(c(Cl)c3)Oc3cc2cc(c3OC2OC(CO)C(O)C(O)C2OC2CC(C)(NCc3ccc(C(F)(F)F)cc3)C(O)C(C)O2)Oc2ccc(cc2Cl)C1O (stereo not drawn) [Compound 37] |  | 2.4 | ≤ 0.06 | ≤ 0.06 | 1 (≈ 0.571 µM) | ≤ 0.06 |  | ≤ 0.06 |  | 0.5 (≈ 0.286 µM) | MIC [2]: ≤ 0.06 µg/mL; MIC [14]: 1 µg/mL (≈ 0.571 µM)
13 | CNC(CC(C)C)C(=O)NC1C(=O)NC(CC(N)=O)C(=O)NC2C(=O)NC3C(=O)NC(C(=O)NC(C(=O)O)c4cc(O)cc(O)c4-c4cc3ccc4O)C(OC3CC(C)(N)C(O)C(C)O3)c3ccc(c(Cl)c3)Oc3cc2cc(c3OC2OC(CO)C(O)C(O)C2OC2CC(C)(NCCc3cccc(Oc4ccccc4)c3)C(O)C(C)O2)Oc2ccc(cc2Cl)C1O (stereo not drawn) [Compound 62] | 0.22 | 9.5 | 0.5 (≈ 0.28 µM) | ≤ 0.06 | 0.5 (≈ 0.28 µM) | ≤ 0.06 | 4 (≈ 2.24 µM) | ≤ 0.06 | 4 (≈ 2.24 µM) | 2 (≈ 1.12 µM) | MIC [2]: 1 µg/mL (≈ 0.559 µM); MIC [5]: ≤ 0.06 µg/mL; MIC [15]: ≤ 0.06 µg/mL; MIC [16]: 0.5 µg/mL (≈ 0.28 µM); MIC [17]: 0.5 µg/mL (≈ 0.28 µM); MIC [12]: 2 µg/mL (≈ 1.12 µM); MIC (Entercoccus faecium 2041): ≤ 0.06 µg/mL; MIC [13]: 1 µg/mL (≈ 0.559 µM)
14 | CCOC(c1ccccc1)c1ccc(CNC2(C)CC(OC3C(Oc4c5cc6cc4Oc4ccc(cc4Cl)C(OC4CC(C)(N)C(O)C(C)O4)C4NC(=O)C(NC(=O)C6NC(=O)C(CC(N)=O)NC(=O)C(NC(=O)C(CC(C)C)NC)C(O)c6ccc(c(Cl)c6)O5)c5ccc(O)c(c5)-c5c(O)cc(O)cc5C(C(=O)O)NC4=O)OC(CO)C(O)C3O)OC(C)C2O)cc1 (stereo not drawn) [Compound 126] | 0.11 | 2.4 | 0.5 (≈ 0.275 µM) | ≤ 0.06 | 1 (≈ 0.55 µM) | ≤ 0.06 | 1 (≈ 0.55 µM) | ≤ 0.06 | 2 (≈ 1.1 µM) | 2 (≈ 1.1 µM) | MIC [2]: 1 µg/mL (≈ 0.55 µM); MIC [15]: 1 µg/mL (≈ 0.55 µM); MIC [16]: 1 µg/mL (≈ 0.55 µM); MIC [17]: 0.5 µg/mL (≈ 0.275 µM); MIC [12]: 0.5 µg/mL (≈ 0.275 µM); MIC (Entercoccus faecium 2041): ≤ 0.06 µg/mL; MIC [13]: 1 µg/mL (≈ 0.55 µM); MIC [14]: 2 µg/mL (≈ 1.1 µM)
